Assays:
Assay in all cases: Kinase binding assay (kinase-tagged T7 phage, qPCR), Kd
FGFR3 = target: T1, FGFR3 (Homo sapiens, UniProt P22607); settings: read-out: FGFR3 (Kd nM)
T1 construct: made in house; host or cells: E. coli derived from BL21, infected with T7 phage
Method: (§1) Kinase-tagged T7 phage strains were prepared in an E. coli host derived from the BL21 strain. E. coli were grown to log-phase and infected with T7 phage and incubated with shaking at 32° C. until lysis. The lysates were centrifuged and filtered to remove cell debris. Streptavidin-coated magnetic beads were treated with biotinylated small molecule ligands for 30 minutes at room temperature to generate affinity resins for kinase assays. The liganded beads were blocked with excess biotin and washed with blocking buffer SeaBlock (Pierce), 1% BSA, 0.05% Tween 20, 1 mM DTT to remove unbound ligand and to reduce non-specific binding. Binding reactions were assembled by combining kinases, liganded affinity beads, and test compounds in 1× binding buffer (20% SeaBlock, 0.17×PBS, 0.05% Tween 20, 6 mM DTT).
(§2) Test compounds were prepared as 111X stocks in 100% DMSO. Kds were determined using an 11-point 3-fold compound dilution series with three DMSO control points. All compounds for Kd measurements are distributed by acoustic transfer (non-contact dispensing) in 100% DMSO. The compounds were then diluted directly into the assays such that the final concentration of DMSO was 0.9%. All reactions performed in polypropylene 384-well plate. Each was a final volume of 0.02 ml. The assay plates were incubated at room temperature with shaking for 1 hour and the affinity beads were washed with wash buffer (1×PBS, 0.05% Tween 20). The beads were then re-suspended in elution buffer (1×PBS, 0.05% Tween 20, 0.5 μM non-biotinylated affinity ligand) and incubated at room temperature with shaking for 30 minutes. The kinase concentration in the eluates was measured by qPCR.
(§3) Binding constants were calculated with a standard dose-response curve using the Hill equation: […]
(§4) The Hill Slope was set to −1. Curves were fitted using a non-linear least square fit with the Levenberg-Marquardt algorithm.

FGFR4 = target: T2, FGFR4 (Homo sapiens, UniProt P22455); settings: read-out: FGFR4 (Kd nM)
T2 construct: made in house; host or cells: E. coli derived from BL21, infected with T7 phage
Method: as §1, §2, §3, §4

FGFR1 = target: T3, FGFR1 (Homo sapiens, UniProt P11362); settings: read-out: FGFR1 (Kd nM)
T3 construct: made in house; host or cells: E. coli derived from BL21, infected with T7 phage
Method: (§5) Kinase-tagged T7 phage strains were prepared in an E. coli host derived from the BL21 strain. E. coli were grown to log-phase and infected with T7 phage and incubated with shaking at 32° C. until lysis. The lysates were centrifuged and filtered to remove cell debris. […] The liganded beads were blocked with excess biotin and washed with blocking buffer SeaBlock (Pierce), 1% BSA, 0.05% Tween 20, 1 mM DTT to remove unbound ligand and to reduce non-specific binding.
(§6) Kds were determined using an 11-point 3-fold compound dilution series with three DMSO control points. […] The compounds were then diluted directly into the assays such that the final concentration of DMSO was 0.9%. All reactions performed in polypropylene 384-well plate. Each was a final volume of 0.02 ml. […] The kinase concentration in the eluates was measured by qPCR.
as §3, §4

FGFR2 = target: T4, FGFR2 (Homo sapiens, UniProt P21802); settings: read-out: FGFR2 (Kd nM)
T4 construct: made in house; host or cells: E. coli derived from BL21, infected with T7 phage
Method: as §5, §6, §3, §4

T3 sequence (P11362 22-822): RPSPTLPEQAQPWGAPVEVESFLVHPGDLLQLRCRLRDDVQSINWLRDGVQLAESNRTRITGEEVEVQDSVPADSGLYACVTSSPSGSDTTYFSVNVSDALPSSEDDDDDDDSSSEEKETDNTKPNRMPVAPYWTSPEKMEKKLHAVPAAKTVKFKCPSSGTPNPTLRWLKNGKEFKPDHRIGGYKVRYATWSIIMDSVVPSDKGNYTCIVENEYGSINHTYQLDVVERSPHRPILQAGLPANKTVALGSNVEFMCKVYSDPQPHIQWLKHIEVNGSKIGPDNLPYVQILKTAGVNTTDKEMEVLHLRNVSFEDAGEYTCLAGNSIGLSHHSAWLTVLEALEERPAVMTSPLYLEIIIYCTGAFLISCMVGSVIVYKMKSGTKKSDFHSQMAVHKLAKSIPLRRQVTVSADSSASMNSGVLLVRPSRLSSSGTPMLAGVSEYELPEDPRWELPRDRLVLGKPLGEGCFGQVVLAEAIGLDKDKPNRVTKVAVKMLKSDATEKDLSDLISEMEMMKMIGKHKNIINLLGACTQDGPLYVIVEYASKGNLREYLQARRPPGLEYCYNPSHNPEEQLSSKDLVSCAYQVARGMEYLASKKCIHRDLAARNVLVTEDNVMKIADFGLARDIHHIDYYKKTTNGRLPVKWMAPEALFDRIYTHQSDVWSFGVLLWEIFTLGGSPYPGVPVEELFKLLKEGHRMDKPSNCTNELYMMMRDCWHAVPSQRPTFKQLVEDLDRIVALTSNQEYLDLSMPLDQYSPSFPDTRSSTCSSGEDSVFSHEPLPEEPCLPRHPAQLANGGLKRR
T2 sequence (P22455 22-802): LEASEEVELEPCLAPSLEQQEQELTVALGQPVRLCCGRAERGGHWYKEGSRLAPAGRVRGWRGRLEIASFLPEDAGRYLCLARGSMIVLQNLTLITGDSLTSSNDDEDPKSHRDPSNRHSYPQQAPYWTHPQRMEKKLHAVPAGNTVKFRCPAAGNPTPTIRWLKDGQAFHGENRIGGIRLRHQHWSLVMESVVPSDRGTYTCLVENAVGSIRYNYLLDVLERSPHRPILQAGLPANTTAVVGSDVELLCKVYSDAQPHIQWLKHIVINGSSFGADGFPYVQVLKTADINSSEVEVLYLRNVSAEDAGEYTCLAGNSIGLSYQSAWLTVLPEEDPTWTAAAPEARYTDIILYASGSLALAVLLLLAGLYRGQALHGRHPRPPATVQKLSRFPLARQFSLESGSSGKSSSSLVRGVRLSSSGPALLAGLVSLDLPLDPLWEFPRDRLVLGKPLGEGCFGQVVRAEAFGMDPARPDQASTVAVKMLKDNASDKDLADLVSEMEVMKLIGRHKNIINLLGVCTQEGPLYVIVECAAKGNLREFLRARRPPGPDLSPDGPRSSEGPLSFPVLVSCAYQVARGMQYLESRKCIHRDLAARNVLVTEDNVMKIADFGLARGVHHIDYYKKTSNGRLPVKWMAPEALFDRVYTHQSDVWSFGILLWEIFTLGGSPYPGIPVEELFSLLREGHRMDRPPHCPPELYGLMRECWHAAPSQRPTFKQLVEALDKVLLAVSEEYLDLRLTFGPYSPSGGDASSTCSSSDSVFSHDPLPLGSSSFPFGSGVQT
T1 sequence (P22607 23-806): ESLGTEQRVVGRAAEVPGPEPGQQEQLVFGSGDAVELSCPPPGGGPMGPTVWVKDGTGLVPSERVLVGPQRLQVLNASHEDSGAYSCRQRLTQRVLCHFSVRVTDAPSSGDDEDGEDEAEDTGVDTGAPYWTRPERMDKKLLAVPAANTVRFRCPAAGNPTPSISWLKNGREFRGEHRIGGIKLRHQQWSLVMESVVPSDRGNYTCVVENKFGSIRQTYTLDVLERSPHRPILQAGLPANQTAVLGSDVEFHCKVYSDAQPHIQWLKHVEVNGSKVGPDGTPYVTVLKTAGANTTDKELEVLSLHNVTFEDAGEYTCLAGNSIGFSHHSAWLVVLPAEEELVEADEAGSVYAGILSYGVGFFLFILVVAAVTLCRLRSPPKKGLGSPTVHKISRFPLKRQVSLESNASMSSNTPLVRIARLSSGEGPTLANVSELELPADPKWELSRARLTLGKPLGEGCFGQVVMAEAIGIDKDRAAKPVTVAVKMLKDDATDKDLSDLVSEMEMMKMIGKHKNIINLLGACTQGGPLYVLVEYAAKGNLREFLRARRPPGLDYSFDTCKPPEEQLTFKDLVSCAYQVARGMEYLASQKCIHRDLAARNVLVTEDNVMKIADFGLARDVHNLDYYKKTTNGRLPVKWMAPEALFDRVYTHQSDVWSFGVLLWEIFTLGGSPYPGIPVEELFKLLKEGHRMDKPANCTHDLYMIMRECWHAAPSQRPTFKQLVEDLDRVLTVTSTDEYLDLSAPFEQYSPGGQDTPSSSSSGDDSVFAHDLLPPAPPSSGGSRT
T4 sequence (P21802 22-821): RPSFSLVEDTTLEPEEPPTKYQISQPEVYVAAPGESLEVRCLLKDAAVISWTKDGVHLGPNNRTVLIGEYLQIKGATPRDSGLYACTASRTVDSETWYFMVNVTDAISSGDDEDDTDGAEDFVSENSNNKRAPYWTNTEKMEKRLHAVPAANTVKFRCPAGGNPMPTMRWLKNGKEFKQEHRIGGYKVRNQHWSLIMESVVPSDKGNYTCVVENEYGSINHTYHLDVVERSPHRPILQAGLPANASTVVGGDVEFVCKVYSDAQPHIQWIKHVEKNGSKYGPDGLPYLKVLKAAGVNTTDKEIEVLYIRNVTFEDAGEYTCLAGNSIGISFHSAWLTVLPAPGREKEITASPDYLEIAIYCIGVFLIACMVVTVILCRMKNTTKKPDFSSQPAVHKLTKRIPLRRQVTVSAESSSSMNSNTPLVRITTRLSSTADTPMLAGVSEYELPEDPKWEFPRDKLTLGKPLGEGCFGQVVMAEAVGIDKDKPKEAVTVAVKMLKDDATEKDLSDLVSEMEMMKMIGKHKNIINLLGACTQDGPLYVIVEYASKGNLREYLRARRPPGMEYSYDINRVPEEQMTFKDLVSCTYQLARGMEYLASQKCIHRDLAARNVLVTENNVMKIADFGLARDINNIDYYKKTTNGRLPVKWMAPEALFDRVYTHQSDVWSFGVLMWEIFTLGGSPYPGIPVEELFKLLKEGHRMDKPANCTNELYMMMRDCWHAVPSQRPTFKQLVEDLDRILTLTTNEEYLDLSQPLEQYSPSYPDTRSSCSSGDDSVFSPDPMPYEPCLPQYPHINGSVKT

`Cc1cc(-c2n[nH]c3ccc(O[C@H](C)c4c(C)cnnc4C)cc23)cc(C#N)c1F` [Example 77, 5-[5-[(1R)-1-(3,5-dimethylpyridazin-4-yl)ethoxy]-1H-indazol-3-yl]-2-fluoro-3-methyl-benzonitrile] was tested, and the Kd (FGFR3) was 0.1 to 100 nM, the Kd (FGFR4) was 0.1 to 100 nM and the Kd (FGFR1) was 250 to 1000 nM. For the same compound, the Kd (FGFR2) was 100 to 250 nM.

In the case of `Cc1cc(-c2n[nH]c3ccc(O[C@@H](C)c4c(C)cnnc4C)cc23)cc(C#N)n1` [Example 70, 4-[5-[(1S)-1-(3,5-Dimethylpyridazin-4-yl)ethoxy]-1H-indazol-3-yl]-6-methyl-pyridine-2-carbonitrile], the Kd (FGFR3) is reported as > 1000 nM, the Kd (FGFR4) is reported as > 1000 nM and the Kd (FGFR1) is reported as > 1000 nM. For the same compound, the Kd (FGFR2) was > 1000 nM.

Work on `COc1ncc(-c2n[nH]c3ccc(O[C@H](C)c4c(Cl)cncc4Cl)cc23)cc1NC(=O)CCN(C)C` [Example 31, N-[5-[5-[(1R)-1-(3,5-dichloro-4-pyridyl)ethoxy]-1H-indazol-3-yl]-2-methoxy-3-pyridyl]-3-(dimethylamino)propanamido] yielded a Kd (FGFR3) of 100 to 250 nM, a Kd (FGFR4) of 100 to 250 nM and a Kd (FGFR1) of 250 to 1000 nM. The Kd (FGFR2) was > 1000 nM.

`C[C@@H](Oc1ccc2[nH]nc(-c3ccc(NC(=O)N(C)C)nc3)c2c1)c1c(Cl)cncc1Cl` [Example 14, 3-[5-[5-[(1R)-1-(3,5-dichloro-4-pyridyl)ethoxy]-1H-indazol-3-yl]-2-pyridyl]-1,1-dimethyl-urea] showed a Kd (FGFR3) of 0.1 to 100 nM, a Kd (FGFR4) of 0.1 to 100 nM and a Kd (FGFR1) of 0.1 to 100 nM. It also gave a Kd (FGFR2) of 0.1 to 100 nM.

With `Cc1ncc(Cl)c([C@@H](C)Oc2cc3c(-c4cnc5c(c4)N(S(C)(=O)=O)CCO5)n[nH]c3cc2Cl)c1Cl` [Example 143, 7-[6-chloro-5-[(1R)-1-(3,5-dichloro-2-methyl-4-pyridyl)ethoxy]-1H-indazol-3-yl]-1-methylsulfonyl-2,3-dihydropyrido[2,3-b][1,4]oxazine] the Kd (FGFR3) was 100 to 250 nM, the Kd (FGFR4) was 100 to 250 nM and the Kd (FGFR1) was > 1000 nM. The Kd (FGFR2) was > 1000 nM.

`C[C@@H](Oc1ccc2[nH]nc(-c3cnc(N)c(OCC(F)(F)F)c3)c2c1)c1c(Cl)cncc1Cl` [Example 37, 5-[5-[(1R)-1-(3,5-Dichloro-4-pyridyl)ethoxy]-1H-indazol-3-yl]-3-(2,2,2-trifluoroethoxy)pyridin-2-amine] was tested, and the Kd (FGFR3) was > 1000 nM, the Kd (FGFR4) was 0.1 to 100 nM and the Kd (FGFR1) was > 1000 nM. The Kd (FGFR2) was > 1000 nM.

`Cc1cnnc(C)c1[C@@H](C)Oc1ccc2[nH]nc(-c3cc(C#N)cc(OC4CCOC4)c3)c2c1` (stereo partly drawn) [Example 67, 3-[5-[(1R)-1-(3,5-dimethylpyridazin-4-yl)ethoxy]-1H-indazol-3-yl]-5-tetrahydrofuran-3-yloxy-benzonitrile] showed a Kd (FGFR3) of 100 to 250 nM, a Kd (FGFR4) of 0.1 to 100 nM and a Kd (FGFR1) of 100 to 250 nM. The Kd (FGFR2) was 250 to 1000 nM.

`C[C@@H](Oc1ccc2[nH]nc(-c3ccc4c(c3)COC3(CCN(CC(F)F)CC3)O4)c2c1)c1c(Cl)cncc1Cl` [Example 168, 6-[5-[(1R)-1-(3,5-dichloro-4-pyridyl)ethoxy]-1H-indazol-3-yl]-1′-(2,2-difluoroethyl)spiro[4H-1,3-benzodioxine-2,4′-piperidine]] showed a Kd (FGFR3) of 0.1 to 100 nM, a Kd (FGFR4) of 0.1 to 100 nM and a Kd (FGFR1) of 0.1 to 100 nM. For the same compound, the Kd (FGFR2) was 0.1 to 100 nM.

For `COc1cc(N)cc(-c2n[nH]c3ccc(O[C@H](C)c4c(Cl)cncc4Cl)cc23)c1` [Example 44, 3-[5-[(1R)-1-(3,5-dichloro-4-pyridyl)ethoxy]-1H-indazol-3-yl]-5-methoxy-aniline], the Kd (FGFR3) was 250 to 1000 nM, the Kd (FGFR4) was 0.1 to 100 nM and the Kd (FGFR1) was > 1000 nM. The Kd (FGFR2) was > 1000 nM.

`C[C@@H](Oc1ccc2[nH]nc(-c3ccnc(N)c3)c2c1)c1c(Cl)cncc1Cl` [Example 29, 4-[5-[(1R)-1-(3,5-dichloro-4-pyridyl)ethoxy]-1H-indazol-3-yl]pyridin-2-amine] gave a Kd (FGFR3) of 0.1 to 100 nM, a Kd (FGFR4) of 0.1 to 100 nM and a Kd (FGFR1) of 0.1 to 100 nM. For the same compound, the Kd (FGFR2) was 0.1 to 100 nM.

`COc1cc(-c2n[nH]c3ccc(O[C@H](C)c4c(C)cnnc4C)cc23)cc(C#N)c1OC` [Example 76, 5-[5-[(1R)-1-(3,5-dimethylpyridazin-4-yl)ethoxy]-1H-indazol-3-yl]-2,3-dimethoxy-benzonitrile] gave a Kd (FGFR3) of 100 to 250 nM, a Kd (FGFR4) of 0.1 to 100 nM and a Kd (FGFR1) of 250 to 1000 nM. For the same compound, the Kd (FGFR2) was > 1000 nM.

Compound `COc1cc2[nH]nc(-c3cnc(N(C)C)c(C#N)c3)c2cc1O[C@H](C)c1c(Cl)cncc1Cl` [Example 131, 5-[5-[(1R)-1-(3,5-dichloro-4-pyridyl)ethoxy]-6-methoxy-1H-indazol-3-yl]-2-(dimethylamino)pyridine-3-carbonitrile] has a Kd (FGFR3) of 0.1 to 100 nM, a Kd (FGFR4) of 0.1 to 100 nM and a Kd (FGFR1) of 0.1 to 100 nM. It also gave a Kd (FGFR2) of 0.1 to 100 nM.

`C[C@@H](Oc1ccc2[nH]nc(-c3cnc(NC4CCOCC4)c(C#N)c3)c2c1)c1c(Cl)cncc1Cl` [Example 132, (R)-5-(5-(1-(3,5-dichloropyridin-4-yl)ethoxy)-1H-indazol-3-yl)-2-((tetrahydro-2H-pyran-4-yl)amino)nicotinonitrile] was tested, and the Kd (FGFR3) was 0.1 to 100 nM, the Kd (FGFR4) was 0.1 to 100 nM and the Kd (FGFR1) was 0.1 to 100 nM. It also gave a Kd (FGFR2) of 0.1 to 100 nM.

With `Cc1cnnc(C)c1[C@@H](C)Oc1ccc2[nH]nc(-c3cc(C#N)cc(N4CC5(CN(C)C5)C4)c3)c2c1` [Example 87, 3-[5-[(1R)-1-(3,5-dimethylpyridazin-4-yl)ethoxy]-1H-indazol-3-yl]-5-(6-methyl-2,6-diazaspiro[3.3]heptan-2-yl)benzonitrile] the Kd (FGFR3) was 250 to 1000 nM, the Kd (FGFR4) was 250 to 1000 nM and the Kd (FGFR1) was > 1000 nM. It also gave a Kd (FGFR2) of 250 to 1000 nM.

With `C[C@@H](Oc1ccc2[nH]nc(-c3cnc4c(c3)N(CCN(C)C)CCO4)c2c1)c1c(Cl)cncc1Cl` [Example 51, 2-[7-[5-[(1R)-1-(3,5-dichloro-4-pyridyl)ethoxy]-1H-indazol-3-yl]-2,3-dihydro-pyrido[2,3-b][1,4]oxazin-1-yl]-N,N-dimethyl-ethanamine] the Kd (FGFR3) was 250 to 1000 nM, the Kd (FGFR4) was 100 to 250 nM and the Kd (FGFR1) was > 1000 nM. For the same compound, the Kd (FGFR2) was > 1000 nM.

In the case of `COc1cc2[nH]nc(-c3cc(C)c(OC)c(C#N)c3)c2cc1O[C@H](C)c1c(C)cnnc1C` [Example 116, (R)-5-(5-(1-(3,5-dimethylpyridazin-4-yl)ethoxy)-6-methoxy-1H-indazol-3-yl)-2-methoxy-3-methylbenzonitrile], the Kd (FGFR3) is reported as 0.1 to 100 nM, the Kd (FGFR4) is reported as 0.1 to 100 nM and the Kd (FGFR1) is reported as 0.1 to 100 nM. It also gave a Kd (FGFR2) of 0.1 to 100 nM.

`C[C@@H](Oc1ccc2[nH]nc(-c3ccc(NC(=O)N4CCC(O)C4)nc3)c2c1)c1c(Cl)cncc1Cl` (stereo partly drawn) [Example 24, N-[5-[5-[(1R)-1-(3,5-dichloro-4-pyridyl)ethoxy]-1H-indazol-3-yl]-2-pyridyl]-3-hydroxy-pyrrolidine-1-carboxamide] showed a Kd (FGFR3) of 0.1 to 100 nM, a Kd (FGFR4) of 0.1 to 100 nM and a Kd (FGFR1) of 0.1 to 100 nM. For the same compound, the Kd (FGFR2) was 0.1 to 100 nM.

For `COc1cc(OC(F)(F)F)cc(-c2n[nH]c3ccc(O[C@H](C)c4c(C)cnnc4C)cc23)c1` [Example 63, 5-[(1R)-1-(3,5-dimethylpyridazin-4-yl)ethoxy]-3-[3-methoxy-5-(trifluoromethoxy)phenyl]-1H-indazole], the Kd (FGFR3) was 250 to 1000 nM, the Kd (FGFR4) was 0.1 to 100 nM and the Kd (FGFR1) was > 1000 nM. The Kd (FGFR2) was > 1000 nM.

`COc1c(C)cc(-c2n[nH]c3ccc(O[C@H](C)c4c(Cl)cncc4Cl)cc23)cc1C#N` [Example 108] gave a Kd (FGFR3) of 0.1 to 100 nM, a Kd (FGFR4) of 0.1 to 100 nM and a Kd (FGFR1) of 250 to 1000 nM. It also gave a Kd (FGFR2) of 250 to 1000 nM.

In the case of `COc1cc(C#N)cc(-c2n[nH]c3cc(OC)c(O[C@@H](C)c4c(C)cnnc4C)cc23)c1` [Example 97, (S)-3-(5-(1-(3,5-dimethylpyridazin-4-yl)ethoxy)-6-methoxy-1H-indazol-3-yl)-5-methoxybenzonitrile], the Kd (FGFR3) is reported as > 1000 nM, the Kd (FGFR4) is reported as 250 to 1000 nM and the Kd (FGFR1) is reported as > 1000 nM. For the same compound, the Kd (FGFR2) was > 1000 nM.

`COc1cc(-c2n[nH]c3ccc(O[C@H](C)c4c(Cl)cncc4Cl)cc23)cc(C#N)c1OC1CCNCC1` [Example 105, 5-[5-[(1R)-1-(3,5-dichloro-4-pyridyl)ethoxy]-1H-indazol-3-yl]-3-methoxy-2-(4-piperidyloxy)benzonitrile] was tested, and the Kd (FGFR3) was 250 to 1000 nM, the Kd (FGFR4) was 0.1 to 100 nM and the Kd (FGFR1) was > 1000 nM. The Kd (FGFR2) was > 1000 nM.

`COc1ncc(-c2n[nH]c3ccc(O[C@H](C)c4c(Cl)cncc4Cl)cc23)cc1C#N` [Example 74, 5-[5-[(1R)-1-(3,5-dichloro-4-pyridyl)ethoxy]-1H-indazol-3-yl]-2-methoxy-pyridine-3-carbonitrile] gave a Kd (FGFR3) of 0.1 to 100 nM, a Kd (FGFR4) of 0.1 to 100 nM and a Kd (FGFR1) of 250 to 1000 nM. For the same compound, the Kd (FGFR2) was 250 to 1000 nM.
